Tests used:
[1] = test system: EpiAirway™ Cell Membrane (mucosal epithelial cell layer); assay: Permeation kinetics across the in vitro epithelial tissue model
Method: (§1) The EpiAirway™ system was developed by MatTek Corp (Ashland, Mass.) as a model of the pseudostratified epithelium lining the respiratory tract. The epithelial cells are grown on porous membrane-bottomed cell culture inserts at an air-liquid interface, which results in differentiation of the cells to a highly polarized morphology. The apical surface is ciliated with a microvillous ultrastructure and the epithelium produces mucus (the presence of mucin has been confirmed by immunoblotting). The inserts have a diameter of 0.875 cm, providing a surface area of 0.6 cm^2. The cells are plated onto the inserts at the factory approximately three weeks before shipping. One “kit” consists of 24 units.
(§2) A. A “kit” of 24 EpiAirway™ units can routinely be employed for evaluating five different formulations, each of which is applied to quadruplicate wells. Each well is employed for determination of permeation kinetics (4 time points), transepithelial electrical resistance (TER). An additional set of wells is employed as controls, which are sham treated during determination of permeation kinetics, but are otherwise handled identically to the test sample-containing units for determinations of transepithelial resistance and viability.
(§3) B. In all experiments, the mucosal delivery formulation to be studied is applied to the apical surface of each unit in a volume of 100 μL, which is sufficient to cover the entire apical surface. An appropriate volume of the test formulation at the concentration applied to the apical surface (no more than 100 μL is generally needed) is set aside for subsequent determination of concentration of the active material by ELISA or other designated assay.
(§4) D. In order to minimize potential sources of error and avoid any formation of concentration gradients, the units are transferred from one 0.9 mL-containing well to another at each time point in the study. These transfers are made at the following time points, based on a zero time at which the 100 μL volume of test material was applied to the apical surface: 15 minutes, 30 minutes, 60 minutes, and 120 minutes.
(§5) F. At the completion of each time point, the medium is removed from the well from which each unit was transferred, and aliquotted into two tubes (one tube receives 700 μL and the other 200 μL) for determination of the concentration of permeated test material and, in the event that the test material is cytotoxic, for release of the cytosolic enzyme, lactate dehydrogenase, from the epithelium. These samples are kept in the refrigerator if the assays are to be conducted within 24 hours, or the samples are subaliquotted and kept frozen at −80° C. until thawed once for assays. Repeated freeze-thaw cycles are to be avoided.
(§6) EIA kit (p/n S-1178(EIAH6101) was purchased from Peninsula Laboratories Inc. (Division of BACHEM, San Carlos, Calif., 800-922-1516). 17×120 mm polypropylene conical tubes (p/n 352097, Falcon, Franklin Lakes, N.J.) were used for all sample preparations. Eight standards were used for PTH quantitation. The rest of the assay procedure was the same as the kit inserts.
(§7) The instant study was designed to evaluate the effect of PN159 itself or in combination with additional permeation enhancers on PTH permeation. The PN159 concentrations evaluated are 25, 50, and 100 μM. The additional permeation enhancers are 45 mg/ml M-β-CD, 1 mg/ml DDPC, and 1 mg/ml EDTA. Sorbitol was used as a tonicifier (146-190 mM) to adjust the osmolarity of formulations to 220 mOsm/kg. The formulation pH was fixed at 4.5. PTH was chosen as a model peptide in this example. 2 mg/ml PTH was combined with PN159 with or without additional permeation enhancers. The combination was tested using an in vitro epithelial tissue model to monitor PTH permeation, transepithelial electrical resistance (TER), and the cytotoxicity of the formulation by LDH assay.
(§8) The effect of PN159 on permeation of MC-4RA was evaluated in this study.

[2] = as above; conditions: human, pH 5, Papp; for Papp at 120 min, 40 mg/mL: galantamine 40 mg/mL pH 5.0, calcitonin 1 mg/mL pH 3.5, PTH1-34 1 mg/mL pH 4.5
Method: as §1, §2, §3, §4, §5, §6, §7, §8

[3] = test system: EpiAirway™ Cell Membrane (mucosal epithelial cell layer); assay: LDH assay (cytotoxicity), in vitro epithelial tissue model; assay type: cell-based; conditions: Example 2, PTH study; PN159 25-100 μM
Method: Repeated freeze-thaw cycles are to be avoided.
The amount of cell death was assayed by measuring the loss of lactate dehydrogenase (LDH) from the cells using a CytoTox 96 Cytoxicity Assay Kit (Promega Corp., Madison, Wis.). Fifty microliters of sample was loaded into a 96-well assay plates. Fresh, cell-free culture medium was used as a blank. 50 μl of substrate solution was added to each well and the plates incubated for 30 minutes at room temperature in the dark. Following incubation, 50 μl of stop solution was added to each well and the plates read on an optical density plate reader at 490 nm.
(§9) The formulation pH was fixed at 4.5.

[4] = test system: EpiAirway™ Cell Membrane (mucosal epithelial cell layer); assay: Transepithelial electrical resistance (TER), EpiAirway in vitro epithelial tissue model; assay type: cell-based; conditions: Example 2, PTH formulation study, applied to apical side
Text: One “kit” consists of 24 units.
A. Respiratory airway epithelial cells form tight junctions in vivo as well as in vitro, and thereby restrict the flow of solutes across the tissue. These junctions confer a transepithelial resistance of several hundred ohms×cm^2 in excised airway tissues. In the MatTek EpiAirway™ units, the transepithelial electrical resistance (TER) is reported by the manufacturer to be routinely around 1000 ohms×cm^2. […] The porous membrane-bottomed units without cells, conversely, provide only minimal transmembrane resistance (approximately 5-20 ohms×cm^2).
B. Accurate determinations of TER require that the electrodes of the ohmmeter be positioned over a significant surface area above and below the membrane, and that the distance of the electrodes from the membrane be reproducibly controlled. The method for TER determination recommended by MatTek and employed for all experiments herein employs an “EVOM”™ epithelial voltohmmeter and an “ENDOHM”™ tissue resistance measurement chamber from World Precision Instruments, Inc., Sarasota, Fla.
D. Determinations of TER are made with 1.5 mL of PBS in the chamber and 350 μL of PBS in the membrane-bottomed unit being measured. The top electrode is adjusted to a position just above the membrane of a unit containing no cells (but containing 350 μL of PBS) and then fixed to ensure reproducible positioning. The resistance of a cell-free unit is typically 5-20 ohms×cm^2 (“background resistance”).
G. The unit is gently blotted free of excess PBS on its exterior surface only before being placed into the chamber (containing a fresh 1.5 mL aliquot of PBS). An aliquot of 350 μL PBS is added to the unit before the top electrode is placed on the chamber and the TER is read on the EVOM meter.
I. The units are read in the following sequence: all sham-treated controls, followed by all formulation-treated samples, followed by a second TER reading of each of the sham-treated controls. All TER values are reported as a function of the surface area of the tissue.
TER was calculated as: TER=(R1−Rb)×A Where R1 is resistance of the insert with a membrane, Rb is the resistance of the blank insert, and A is the area of the membrane (0.6 cm^2). The effect of pharmaceutical formulations comprising intranasal delivery-enhancing agents, for example, permeabilizing peptides as measured by TER across the EpiAirway™ Cell Membrane (mucosal epithelial cell layer). Permeabilizing peptides are applied to the EpiAirway™ Cell Membrane at a concentration of 1.0 mM. A decrease in TER value relative to the control value (control=approximately 1000 ohms-cm^2; normalized to 100.) indicates a decrease in cell membrane resistance and an increase in mucosal epithelial cell permeability.
as §9

Row | Compound | Papp ([1]; [PN159] 0 μM, galantamine 40 mg/mL pH 5.0, calcitonin 1 mg/mL pH 3.5, PTH1-34 1 mg/mL pH 4.5, PYY3-36 1 mg/mL, pH was 5.0) [×10⁻⁶ cm/s] | increase in Papp ([1]; drug in the presence of PN159 vs drug alone) | Papp at 120 min, 40 mg/mL ([2]; [PN159] 0 μM, PYY3-36 1 mg/mL, pH was 5.0) [×10⁻⁶ cm/s] | Papp at 120 min, 40 mg/mL ([2]; [PN159] 25 μM, PYY3-36 1 mg/mL pH 7.0) [×10⁻⁶ cm/s] | Papp at 120 min, 40 mg/mL ([2]; [PN159] 50 μM) [×10⁻⁶ cm/s] | Papp at 120 min, 40 mg/mL ([2]; [PN159] 100 μM, PYY3-36 1 mg/mL pH 7.0) [×10⁻⁶ cm/s] | Papp at 120 min, 40 mg/ml ([2]; in the presence of 25 nM PN159 (as printed in text)) [×10⁻⁶ cm/s] | Papp at 120 min, 40 mg/ml ([2]; in the presence of 50 nM PN159 (as printed in text)) [×10⁻⁶ cm/s] | Papp at 120 min, 40 mg/ml ([2]; in the presence of 100 nM PN159 (as printed in text)) [×10⁻⁶ cm/s] | cytotoxicity (LDH) [3] | TER reduction (in words) [4]
1 | COc1ccc2c3c1O[C@H]1C[C@@H](O)C=C[C@@]31CCN(C)C2 [Galantamine, galantamine, reference compound] | 2.1 | 2.5-3.5 fold | ~2.1 | 5.1 | 6.2 | 7.2 | 5.1 | 6.2 | 7.2 |  | 
2 | Triton X [reference compound] |  |  |  |  |  |  |  |  |  | significant cytotoxicity | significant TER reduction

Source: US20060062758A1, “Tight junction modulator peptide PN159 for enhanced mucosal delivery of therapeutic compounds” (Nastech Pharmaceutical Comapny Inc., priority 2004, published 2006)
